From ChEMBL document CHEMBL1157539, “Thousands of chemical starting points for antimalarial lead identification” (Nature, 2010) come the findings set out here.

This test concerns Plasmodium falciparum. Briefly: GSK_TCMDC: Inhibition of Plasmodium falciparum 3D7 in whole erythrocytes, using parasite LDH activity as an index of growth. The class given is functional, organism-based. The conditions noted are these: Plasmodium falciparum, 3D7.
For `Cc1ccc(C2CCN(CCCCNC(=O)c3ccc(NC(=O)c4ccc(Cl)cc4)cc3)CC2)c(OCC(F)(F)F)c1`, the XC50 worked out at 284 nM.
In the case of `CC(=O)Oc1c(C2CCN(CCCCNC(=O)c3ccc(-c4ccc(C#N)cc4)cc3)CC2)ccc2c1CCCC2` it was 1130 nM.
With `N=C(N)Nc1cccc(NC(=O)Nc2cccc(NC(=N)N)c2)c1`, the XC50 came to 258 nM.
In the case of `CCNC(=O)c1ccc2c(c1)c(C)c(C)n2Cc1ccc(F)cc1` it was 767 nM.
In the case of `O=C(CCC(=O)c1ccc2c3c(cccc13)CC2)NC1CCC(CN2CCC(c3c[nH]c4ccccc34)CC2)CC1` (stereo unspecified) it was 918 nM; in that of `O=C(NCCCc1ccccc1)c1ccc(O)c(-c2cc(Cl)cc(Cl)c2)c1`, 567 nM; in that of `Cc1cccc2nc(-c3ccc(-c4cccc(NC(=O)Nc5ccc6c(c5)OCO6)c4)cc3)[nH]c12`, 745 nM.
The result for `Fc1ccc(-c2cncc(-c3ccc(F)cc3)n2)cc1` reads 639 nM.
In turn, `COc1ccccc1C1CCN(CCCCNC(=O)c2ccc(/C=C/c3cc(Cl)cc(Cl)c3)cc2)CC1` showed an XC50 of 718 nM.
The result for `O=C(Cc1ccccc1)NC1CCN(c2ccnc3cc(Cl)ccc23)C1` (stereo unspecified) reads 805 nM; that for `O=C(Nc1ccc(Br)cc1)N(CCN1CCOCC1)CC(O)COc1ccc(Cl)c(F)c1` (stereo unspecified), 1040 nM; that for `O=C(C=Cc1ccc(Br)cc1)N1CCC(CCN2CCC(c3c[nH]c4ccccc34)CC2)CC1`, 919 nM.
The result for `COc1ccc2c(c1)nc(CNC(=N)N)n2Cc1ccc(Cl)cc1` reads 359 nM.
The molecule `CCCc1cc(Cc2cnc(N)nc2N)cc(CCC)c1OCCCC(=O)OCC` had an XC50 of 51.8 nM.
The result for `N#Cc1ccc(CN2CCCN(Cc3cccc(NC(=O)c4cc5ccccc5s4)c3)CC2)cc1` reads 907 nM.
In the case of `COc1ccc2nc3cc(Cl)ccc3c(NCCO)c2c1` it was 800 nM; in that of `CC(C)CNCc1ccc(-c2ccc(CN(CCCN3CCN(C)CC3)C(=O)/C=C/c3ccccc3)cc2)cc1`, 917 nM; in that of `COc1cc2nc(C)nc(Nc3ccc(Oc4ccccc4)cc3)c2cc1OC`, 720 nM.
The molecule `CNC(=O)c1cnc(Nc2ccc3[nH]c(=O)[nH]c3c2)nc1Nc1cccc(OC(C)C)c1` displayed an XC50 of 926 nM.
`CCCCc1ccc(-c2ccc(-c3c(C)[nH]c(C)c(Br)c3=O)cn2)cc1`: the XC50 is 57.8 nM.
The result for `CCOc1cc(C(=O)N[C@@H](Cc2ccccc2)[C@H](O)CNCc2cccc(OC)c2)cc(N2CCCCS2(=O)=O)c1` reads 721 nM; that for `CC(C)(C)SCC(O)Cn1c2ccc(Br)cc2c2cc(Br)ccc21` (stereo unspecified), 1000 nM; that for `COc1ccc2nccc([C@@H](O)CN3CCC(NC(=O)C(=Cc4ccc(C#N)cc4)c4ccc(-c5ccccc5)cc4)CC3)c2c1`, 739 nM.
In the case of `O=C(NCCCCN1CCC(c2cccc3ccccc23)CC1)c1ccc(-c2ccc(C(F)(F)F)cn2)cc1` it was 867 nM; in that of `N#Cc1ccc(N/C(=N\c2ccccc2Br)N(C2CCCCC2)C2CCCCC2)c(O)c1`, 785 nM; in that of `COc1ccc(CN2CCN(Cc3cc(Cl)ccc3O)CC2CCO)c(C)c1C` (stereo unspecified), 1490 nM.
In the case of `Cc1cc(Nc2ccnc(-c3ccc(Cl)cc3)n2)ccn1` it was 1040 nM; in that of `COc1cc(C=NNc2cc(C)nc3c(OC)cccc23)cc(OC)c1OC`, 887 nM.
Molecule `CO/C(=C\C=C\c1cc2cc(Cl)c(Cl)cc2[nH]1)C(=O)NCCCNC12CC3CC(CC(C3)C1)C2` gave an XC50 of 730 nM.
The result for `CN(C(=O)C1(c2ccc(Cl)cc2)CC1)C1CCN(CCCCCNC(=O)/C=C/c2ccc(Cl)c(Cl)c2)CC1` reads 769 nM; that for `Cc1cc(C)c(NC(=O)NC2CCN(CCCCCNC(=O)/C=C/c3ccc(Cl)c(Cl)c3)C2)c(C)c1` (stereo unspecified), 186 nM; that for `Cc1nc(NC(=N)N)nc2cc3c(cc12)CCC3`, 916 nM.
The result for `CCN(CCO)CCc1cccc(Nc2nccc(-c3c(-c4ccc(NC(=O)N(CC)CC)cc4)nn4ccccc34)n2)c1` reads 1110 nM; that for `COc1cccc(C(=O)NC(NC(=S)Nc2ccc(OC)cc2[N+](=O)[O-])C(Cl)(Cl)Cl)c1` (stereo unspecified), 758 nM; that for `COc1cc2c(cc1N(C(C)C)S(=O)(=O)c1sc3ccc(Cl)cc3c1C)CCNCC2`, 1050 nM.
As to `Oc1ccc2nc(N3CCNCC3)nc(NCCCc3ccccc3)c2c1`, the XC50 was 1370 nM.
In turn, `O=C(NC1CCN(CC2(c3ccc(Cl)cc3)CCCCC2)CC1)c1cc[nH]n1` returned an XC50 of 84 nM.
`CCN(CC)CCNC(=O)c1ccc(NC(=O)c2ccc(-c3cc(NC(=O)CC4CCCC4)ccc3C)cc2)cc1` registered an XC50 of 564 nM.
In the case of `Cc1cccc2nc(-c3cccc(-c4ccc(CNCc5ccc(S(C)(=O)=O)cc5)cc4)c3)[nH]c12` it was 184 nM; in that of `CCC(C)(C)c1ccc(Oc2ccc(NC(=O)Nc3ccc(Cl)c(Cl)c3)cc2)cc1`, 704 nM.
In the case of `COCc1ccc(CN2CCC(C(=O)Nc3ccc(-c4nc5ccccc5[nH]4)cc3)CC2)o1` it was 853 nM; in that of `O=S(=O)(Nc1cccc(CCN2CCC(N3CCCCC3)CC2)c1)c1ccc(-c2ccccc2)cc1`, 1120 nM.
The result for `Cn1nc(-c2ccc(NC(=O)Nc3ccc4ccccc4c3)c(F)c2)c2cnc(NCCN3CCOCC3)nc21` reads 1020 nM; that for `CCCCCC(=O)NCC(NCCCNc1cc(=O)c2ccccc2[nH]1)c1cc(Br)cc(Br)c1` (stereo unspecified), 652 nM.
In turn, `Oc1ccc2[nH]cc(C3CCN(CCCNCc4ccc(-c5ccccc5)cc4)CC3)c2c1` showed an XC50 of 725 nM.
In the case of `O=C(/C=C/c1ccc(Cl)c(Cl)c1)NCCCCCN1CCCN(C(=S)Nc2ccc(Cl)cc2)CC1` it was 1130 nM; in that of `C=CCC(CC=C)N1C(=O)C(c2ccccc2)(c2ccccc2)N=C1N`, 659 nM; in that of `COc1ccc(CNCc2ccsc2)cc1-c1ccc(OC)c(S(=O)(=O)NCCN2CCCC2)c1`, 917 nM.
The result for `Cn1ccnc1CNC(=O)c1ccc(-c2ccc(-c3nc4cc(C(F)(F)F)ccc4[nH]3)s2)cc1` reads 698 nM; that for `CCn1c(-c2nonc2N)nc2c(-c3cc4ccccc4s3)ncc(C(=O)N3CCC(N)C3)c21` (stereo unspecified), 871 nM.
In the case of `COc1ccc(S(=O)(=O)N(CCCN2CCN(C)CC2)Cc2csc(-c3ccc(CNCc4ccccc4)cc3)n2)cc1` it was 949 nM.
With `O=C(NCc1ccc(Cl)c(Cl)c1)c1cc(CNC2CCNCC2)ccc1O`, the XC50 was found to be 859 nM.
The result for `O=C(NCc1cccc(C(F)(F)F)c1)C1CCCN(C(=O)c2ccc(O)c(-c3ccc(Cl)c(Cl)c3)c2)C1` (stereo unspecified) reads 804 nM; that for `Cc1cc(C)cc(OCC(O)CN(CCN2CCOCC2)C(=O)Nc2ccc(Br)cc2)c1` (stereo unspecified), 1030 nM; that for `Cc1ccc2c(Cl)c(C(=O)N3CC(C)OC(C)C3)sc2c1` (stereo unspecified), 176 nM.
Turning to `CCCC1(NC[C@@H](O)[C@H](Cc2ccccc2)NC(=O)c2cc(NCC)cc(N3CCCCS3(=O)=O)c2)CCCC1`, the XC50 is 505 nM.
In the case of `COc1ccc(Nc2ncc(OC)c(Nc3ccccc3C(N)=O)n2)cc1N1CCN(C)CC1` it was 740 nM; in that of `Cc1[nH]c(C)c(-c2ccc(OCc3cc(C(F)(F)F)cc(C(F)(F)F)c3)nc2)c(=O)c1Br`, 152 nM.
In turn, `O=C(N/C=N/c1cc([N+](=O)[O-])c(-c2cccnc2)n1-c1ccc(O)cc1)c1ccccc1` showed an XC50 of 299 nM.
For `CCCCNS(=O)(=O)c1ccc(NC(=O)c2cc([N+](=O)[O-])ccc2Cl)cc1`, the XC50 was determined as 902 nM.
`CN(CCCNc1ccc(C(=O)Nc2ccc(C(F)(F)F)cc2)cc1[N+](=O)[O-])Cc1ccccc1` returned an XC50 of 229 nM.
